Source: patent US12172959B2, “Mono- or di-substituted indole derivatives as dengue viral replication inhibitors” (priority 2015, dated 2024)

Experiments:
Assay type in all cases: cell-based
[1] = tested on: DENV-2 strain 16681; test: Tetravalent RT-qPCR assay Protocol A, serotype 2; details: Dengue virus, DENV2, 72 h; Protocol A, RT-qPCR serotype 2 16681, Vero cells, day 3; read-out: EC50
Method: (§1) The antiviral activity of the compounds of the invention was tested against DENV-1 strain TC974#666 (NCPV; Table 6), DENV-2 strain 16681 (Table 7), DENV-3 strain H87 (NCPV; Table 8) and DENV-4 strains H241 (NCPV; Table 9A) and SG/06K2270DK1/2005 (Eden; Table 9B) in a RT-qPCR assay. Therefore, Vero cells were infected with either DENV-1, or -2, or -3, or -4 in the presence or absence of test compounds. At day 3 post-infection, the cells were lysed and cell lysates were used to prepare cDNA of both a viral target (the 3′UTR of DENV; Table 2) and a cellular reference gene (β-actin, Table 2). Subsequently, a duplex real time PCR was performed on a Lightcycler480 instrument. The generated Cp value is inversely proportional to the amount of RNA expression of these targets. Inhibition of DENV replication by test compound results in a shift of Cp's for the 3′UTR gene. On the other hand, if a test compound is toxic to the cells, a similar effect on β-actin expression will be observed. The comparative ΔΔCp method is used to calculate EC50, which is based on the relative gene expression of the target gene (3′UTR) normalized with the cellular housekeeping gene (β-actin).
(§2) The culture medium consisted of minimal essential medium supplemented with 2% of heat-inactivated fetal calf serum, 0.04% gentamycin (50 mg/mL) and 2 mM of L-glutamine. Vero cells, obtained from ECACC, were suspended in culture medium and 75 μL/well was added in 96-well plates (10000 cells/well), which already contain the antiviral compounds. […] In addition, each plate contains wells which are assigned as virus controls (containing cells and virus in the absence of compound) and cell controls (containing cells in the absence of virus and compound). Once the cells were added in the plates, the plates were incubated in a fully humidified incubator (37° C., 5% CO2) until the next day. Dengue viruses serotype-1, 2, 3 and 4 were diluted in order to obtain a Cp of ˜22-24 in the assay. Therefore, 25 μL of virus suspension was added to all the wells containing test compound and to the wells assigned as virus control. In parallel, 25 μL of culture medium was added to the cell controls. Next, the plates were incubated for 3 days in a fully humidified incubator (37° C., 5% CO2). After 3 days, the supernatant was removed from the wells and the cells were washed twice with ice-cold PBS (˜100 μL). The cell pellets within the 96-well plates were stored at −80° C. for at least 1 day. Next, RNA was extracted using the Cells-to-CT™ lysis kit, according to the manufacturer's guideline (Life Technologies). The cell lysates can be stored at −80° C. or immediately used in the reverse transcription step.
(§3) In preparation of the reverse transcription step, mix A (table 3A) was prepared and 7.57 μL/well was dispensed in a 96-well plate. After addition of 5 μL of the cell lysates, a five minute denaturation step at 75° C. was performed (table 3B). Afterwards, 7.43 μL of mix B was added (table 3C) and the reverse transcription step was initiated (table 3D) to generate cDNA.
(§4) Finally, a RT-qPCR mix was prepared, mix C (table 4A), and 22.02 μL/well was dispensed in 96-well LightCycler qPCR plates to which 3 μL of cDNA was added and the qPCR was performed according to the conditions in table 4B on a LightCycler 480.
(§5) Using the LightCycler software and an in-house LIMS system, dose response curves for each compound were calculated and the half maximal effective concentration (EC50) and the half maximal cytotoxic concentration (CC50) were determined.

[2] = tested on: DENV-1 strain Djibouti strain (D1/H/IMTSSA/98/606); test: Tetravalent RT-qPCR assay Protocol B, serotype 1; details: Dengue virus, DENV1, 168 h, RT-qPCR serotype 1 Djibouti, 7 days
Method: The antiviral activity of the compounds of the invention was tested against DENV-1 strain Djibouti strain (D1/H/IMTSSA/98/606; Table 6), DENV-2 strain NGC (Table 7), DENV-3 strain H87 (Table 8) and DENV-4 strain SG/06K2270DK1/2005 (Table 9B) in a RT-qPCR assay. Vero-B or Vero-M cells (5×10^4) were seeded in 96-well plates. One day later, culture medium was replaced with 100 μL assay medium containing a 2×, 3× or 5× serial dilution of the compound (concentration range: 50 μg/mL-0.00038 μg/mL, 50 μg/mL-0.0076 μg/mL, and 50 μg/mL-0.00013 μg/mL, respectively) and 100 μL of dengue virus inoculum (DENV). Following a 2 hour incubation period, the cell monolayer was washed 3 times with assay medium to remove residual, non-adsorbed virus and cultures were further incubated for either 4 days (DENV-2 NGC) or 7 days (DENV-1 Djibouti strain D1/H/IMTSSA/98/606, DENV-3 strain H87 prototype, DENV-4 strain H241, and DENV-4 strain EDEN) in the presence of the inhibitor. Supernatant was harvested and viral RNA load was determined by real-time quantitative RT-PCR. The 50% effective concentration (EC50), which is defined as the compound concentration that is required to inhibit viral RNA replication by 50%, was determined using logarithmic interpolation.
RNA was isolated from 100 μL (or in some circumstances 150 μL) supernatant with the NucleoSpin 96 Virus kit (Filter Service, Duren, Germany) as described by the manufacturer. The sequences of the TaqMan primers (DENV-For, DENV-Rev; Table 5) and TaqMan probes (DENV-Probe Table 5) were selected from non-structural gene 3 (NS3) or NS5, of the respective flaviviruses using Primer Express software (version 2.0; Applied Biosystems, Lennik, Belgium). The TaqMan probe was fluorescently labelled with 6-carboxyfluorescein (FAM) at the 5′ end as the reporter dye, and with minor groove binder (MGB) at the 3′ end as the quencher (Table 5). One-step, quantitative RT-PCR was performed in a total volume of 25 μL, containing 13.9375 μL H2O, 6.25 μL master mix (Eurogentec, Seraing, Belgium), 0.375 μL forward primer, 0.375 μL reverse primer, 1 μL probe, 0.0625 μL reverse transcriptase (Eurogentec) and 3 μL sample. RT-PCR was performed using the ABI 7500 Fast Real-Time PCR System (Applied Biosystems, Branchburg, New Jersey, USA) using the following conditions: 30 min at 48° C. and 10 min at 95° C., followed by 40 cycles of 15 s at 95° C. and 1 min at 60° C. The data was analyzed using the ABI PRISM 7500 SDS software (version 1.3.1; Applied Biosystems). For absolute quantification, standard curves were generated using 10-fold dilutions of template preparations of known concentrations.

[3] = tested on: DENV-1 strain TC974#666; test: Tetravalent RT-qPCR assay Protocol A, serotype 1; details: Dengue virus, DENV1, 72 h, RT-qPCR serotype 1 TC974#666, Vero cells, day 3
Method: as §1, §2, §3, §4, §5

Row | Structure (SMILES) | EC50 [1] | EC50 [2] | EC50 [3]
1 | COc1cc(NC(C(=O)c2c[nH]c3c(C)c(OC)ccc23)c2ccc(Cl)cc2OC)cc(S(C)(=O)=O)c1 (single isomer, unassigned) [Compound 6A, 2-(4-chloro-2-methoxyphenyl)-2-((3-methoxy-5-(methyl-sulfonyl)phenyl)amino)-1-(6-methoxy-7-methyl-1H-indol-3-yl)ethanone] | 0.11 nM | < 14 nM | 1.6 nM
2 | COc1cc(NC(C(=O)c2c[nH]c3c(C)c(F)ccc23)c2ccc(Cl)cc2OC)cc(S(C)(=O)=O)c1 (single isomer, unassigned) [Compound 2A, 2-(4-chloro-2-methoxyphenyl)-1-(6-fluoro-7-methyl-1H-indol-3-yl)-2-((3-methoxy-5-(methylsulfonyl)phenyl)amino)ethanone] | 0.24 nM | < 14 nM | 2.4 nM
3 | COc1cc(NC(C(=O)c2c[nH]c3cc(OC)c(C)cc23)c2ccc(Cl)cc2OC)cc(S(C)(=O)=O)c1 (single isomer, unassigned) [Compound 4A, 2-(4-chloro-2-methoxyphenyl)-2-((3-methoxy-5-(methyl-sulfonyl)phenyl)amino)-1-(6-methoxy-5-methyl-1H-indol-3-yl)ethanone] | 0.2 nM | < 14 nM | 0.97 nM
4 | COc1cc(NC(C(=O)c2c[nH]c3cc(F)ccc23)c2ccc(Cl)cc2OC)cc(S(C)(=O)=O)c1 (single isomer, unassigned) [Compound 1A, 2-(4-chloro-2-methoxyphenyl)-1-(6-fluoro-1H-indol-3-yl)-2-((3-methoxy-5-(methylsulfonyl)phenyl)amino)ethanone] | 0.28 nM | < 15 nM | 2.5 nM
5 | COc1cc(NC(C(=O)c2c[nH]c3cc(OC)c(F)cc23)c2ccc(Cl)cc2OC)cc(S(C)(=O)=O)c1 (single isomer, unassigned) [Compound 5A, 2-(4-chloro-2-methoxyphenyl)-1-(5-fluoro-6-methoxy-1H-indol-3-yl)-2-((3-methoxy-5-(methylsulfonyl)phenyl)amino)ethanone] | 0.34 nM | < 14 nM | 3.6 nM
